How the values were obtained:
[1] = Particle size distribution, Malvern particle size analyzer; format: physicochemical; settings: laser diffraction
Experimental: The study was conducted using Malvern particle size analyzer. The map of scattering intensity versus angle is the primary source of information used to calculate the particle size. The scattering of particles is accurately predicted by the Mie scattering model allowing accurate sizing across the widest possible dynamic range. During the laser diffraction measurement, particles are passed through a focused laser beam. These particles scatter light at an angle that is inversely proportional to their size. The angular intensity of the scattered light is then measured by a series of photosensitive detectors. The advantage of this study is that there is no sample preparation involved.
This is a clear indication that the process of nanoemulsification followed has effectively transformed the large sized particles to nanosized coated curcuminoid particles. Additional peaks can be observed which is contributed by the high molecular weight excipients used to prepare the formulation.

[2] = system: selenite-induced cataract in Wistar rat pups; assay: In vivo anti-cataract efficacy, selenite-induced cataract
Experimental: Animals were grouped into Group I (control), Group II (sodium selenite) and Group III (treatment).
Two hours later Sodium Selenite (25 μM/kg·bw of 5 ml/kg·bw) was injected subcutaneously to both group II and III animals, thereafter 5 μl of LP002-09 was instilled topically to the eyes of group III animals only.
All animals were observed individually through out the observation period for any clinical signs and mortality. On the examination day i.e. when the pups first opened their eyes, the development of cataract was observed by the presence or absence of opacity by dilating the pupil with 0.8% tropicamide.
The cataract was scored on a scale of 0 to 4 according to procedure described by Muranov et al., (2004). Grade 0 was a normal clear lens, Grade 1 was a subcapsular opacity; Grade 2 was nuclear cataract, Grade 3 was strong nuclear cataract; Grade 4 was dense opacity involving entire lens and the results have been presented in below table 1

[3] = of 20 eyes, rat pups, sodium selenite s.c.

Row | Compound | particle size [1] | particle size ([1]; listed as curcumin) | Total Percentage of cataract ([2]; 20 eyes, rat pups) | Grade (Mean ± S.D.) ([2]; cataract scale 0 to 4, LP002-09 P < 0.0001 vs. Sodium Selenite treated) | Dense opacity involving entire lens, Score 4 (number of eyes) [2, 3] | No Opacity, Score 0 (number of eyes) [2, 3] | Nuclear cataract, Score 2 (number of eyes) [2, 3] | Strong Nuclear cataract, Score 3 (number of eyes) [2, 3] | Subcapsular opacity, Score 1 (number of eyes) [2, 3] | eyes with dense opacity type cataract ([2]; percent of eyes) | eyes with nuclear cataract ([2]; percent of eyes) | eyes with strong nuclear cataract ([2]; percent of eyes)
1 | COc1cc(/C=C/C(=O)CC(=O)/C=C/c2ccc(O)c(OC)c2)ccc1O [unformulated curcumin 98%, Curcumin] | 373 nm | 374 nm |  |  |  |  |  |  |  |  |  | 
2 | O=[Se](O)O [Sodium Selenite] |  |  | 100% | 3.6 ± 0.68 | 14 | 0 | 2 | 4 | 0 | 70% | 10% | 20%
